Laboratory results as given in patent US9416144B2, “Benzoxazine oxazolidinone compound, preparation method and application thereof” (priority 2012, dated 2016).
Converted amounts (≈) assume the structure as drawn.

Legend:
Enterococcus (6 strains) = assay: In vitro antibacterial activity, MIC by agar double dilution method; type: cell-based; conditions: clinical isolates, 35° C. 16 hrs
From the text: (§1) Experimental method: The agar double dilution method (Antimicrob. Agents and Chemother, 40, 1996, 720-726) was used to determine the minimum inhibitory concentration (MIC) of the series of compounds of the invention and the positive control drug linezolid for the test strains. The multipoint inoculation system (Denley A400) was employed to inoculate the bacteria on the agar plate surface with different concentrations of drugs; inoculation amount on each point was about 10^6 CFU/mL. The plates were incubated at 35° C. for 16 hrs before the results were observed. The lowest drug concentration contained in the Petri dish without bacterial growth was used as the minimum inhibitory concentration (MIC value) of the drug fir that strain.
(§2) Test strains: All the test strains were clinically isolated pathogens which were collected from the Nanjing region, and they were re-identified by routine methods before use. 31 strains of the clinically isolated pathogens were chosen, including 6 strains of Enterococcus, 5 Staphylococcus aureus sensitive strains; 5 Staphylococcus epidermidis sensitive strains; 6 Staphylococcus aureus resistant strains; 5 Staphylococcus epidermidis resistant strains; and 4 Streptococcus pneumoniae resistant strains.
(§3) Compounds to be tested were first added 2 ml of DMSO to help them fully dissolved, then added sterile double distilled water to the desired concentration; to all the Petri dish with added drug liquid were added 20 mL MIT medium which was heat-melted to be liquid-like, to make the final drug concentration in the Petri dish to be 64, 32, 16, 8, 4, 2, 1, 0.5, 0.25, 0.125, 0.0625, and 0.031 μg/mL.
(§4) The positive control group was LZ (linezolid, brand name Zyvox, approved by the FDA in 2000 to be firstly sold in the United States, which is the first and also the only one of oxazolidinone antibacterial drugs allowed to enter clinical application).

[1] = test system: Streptococcus pneumoniae resistant strains (4 strains); assay: as above; type: cell-based; conditions: clinical isolates
From the text: as §1, §2, §3, §4

[2] = test system: Staphylococcus epidermidis resistant strains (5 strains); assay: as above; type: cell-based; conditions: clinical isolates
From the text: as §1, §2, §3, §4

[3] = test system: Staphylococcus aureus sensitive strains (5 strains); assay: as above; type: cell-based; conditions: clinical isolates
From the text: as §1, §2, §3, §4

[4] = test system: Staphylococcus aureus resistant strains (6 strains); assay: as above; type: cell-based; conditions: clinical isolates
From the text: as §1, §2, §3, §4

[5] = test system: Staphylococcus epidermidis sensitive strains (5 strains); assay: as above; type: cell-based; conditions: clinical isolates
From the text: as §1, §2, §3, §4

Structure (SMILES)	melting point [°C]	MIC (Enterococcus (6 strains)) [µg/mL]	MIC [1] [µg/mL]	MIC [2] [µg/mL]	MIC [3] [µg/mL]	MIC [4] [µg/mL]	MIC [5] [µg/mL]
Cc1cc(C#N)ncc1-c1ccc2c(c1)OC[C@H]1[C@H](CO)OC(=O)N21 [Compound 21, 5-((3R,3aS)-3-(hydroxylmethyl)-1-oxo-1,3,3a,4-tetrahydrobenzo[b]oxazolo[3,4-d][1,4]oxazin-7-yl)-4-methylpicolinonitrile]	238 to 240	4 to 8 (≈ 11.9 to 23.7 µM)	1 to 2 (≈ 2.96 to 5.93 µM)	0.25 to 1 (≈ 0.741 to 2.96 µM)	0.25 to 0.5 (≈ 0.741 to 1.48 µM)	0.5 to 1 (≈ 1.48 to 2.96 µM)	0.25 to 0.5 (≈ 0.741 to 1.48 µM)
O=C1O[C@@H](CO)[C@@H]2COc3cc(-c4ccc(N5C[C@@H]6CCCN[C@@H]6C5)nc4)ccc3N12 [Compound 32, (3R,3aS)-7-(6-((4aS,7aS)-hexahydro-1H-pyrrolo[3,4-b]pyridin-6(2H)-yl)pyridin-3-yl)-3-(hydroxylmethyl)-3a,4-dihydrobenzo[b]oxazolo[3,4-d][1,4]oxazin-1(3H)-one]	210 to 212	16 (≈ 37.9 µM)	8 to 16 (≈ 18.9 to 37.9 µM)	4 to 8 (≈ 9.47 to 18.9 µM)	4 to 8 (≈ 9.47 to 18.9 µM)	8 (≈ 18.9 µM)	4 to 8 (≈ 9.47 to 18.9 µM)

Results, then the molecule that gave them:

melting point [°C]	MIC (Enterococcus (6 strains)) [µg/mL]	MIC [1] [µg/mL]	MIC [2] [µg/mL]	MIC [3] [µg/mL]	MIC [4] [µg/mL]	MIC [5] [µg/mL]	Structure (SMILES)
245 to 246	4 to 16 (≈ 10.1 to 40.3 µM)	2 (≈ 5.03 µM)	1 (≈ 2.52 µM)	0.5 to 1 (≈ 1.26 to 2.52 µM)	0.5 to 1 (≈ 1.26 to 2.52 µM)	0.5 to 1 (≈ 1.26 to 2.52 µM)	Cc1cc(N2CCOC2=O)ncc1-c1ccc2c(c1)OC[C@H]1[C@H](CO)OC(=O)N21 [Compound 22, (3R,3aS)-3-(hydroxylmethyl)-7-(4-methyl-6-(2-oxooxazolidin-3-yl)pyridin-3-yl)-3a,4-dihydrobenzo[b]oxazolo[3,4-d][1,4]oxazin-1(3H)-one]
169 to 171	16 (≈ 36.7 µM)	16 (≈ 36.7 µM)	8 to 16 (≈ 18.3 to 36.7 µM)	8 (≈ 18.3 µM)	8 (≈ 18.3 µM)	4 to 8 (≈ 9.16 to 18.3 µM)	CN1CCC[C@H]2CN(c3ccc(-c4ccc5c(c4)OC[C@H]4[C@H](CO)OC(=O)N54)cn3)C[C@H]21 [Compound 23, (3R,3aS)-3-(hydroxylmethyl)-7-(6-((4aS,7aS)-1-methylhexaydro-1H-pyrrolo[3,4-b]pyridin-6(2H)-yl)pyridin-3-yl)-3a,4-dihydrobenzo[b]oxazolo[3,4-d][1,4]oxazin-1(3H)-one]
–	1 to 2 (≈ 2.42 to 4.85 µM)	2 (≈ 4.85 µM)	2 (≈ 4.85 µM)	1 to 2 (≈ 2.42 to 4.85 µM)	1 to 2 (≈ 2.42 to 4.85 µM)	0.5 to 1 (≈ 1.21 to 2.42 µM)	NCC1CN(c2ccc(-c3ccc4c(c3)OC[C@H]3[C@H](CO)OC(=O)N43)cn2)C(=O)O1 (stereo partly drawn) [Compound 33, (3R,3aS)-7-(6-(5-(aminomethyl)-2-oxooxazolidin-3-yl)pyridin-3-yl)-3-(hydroxylmethyl)-3a,4-dihydrobenzo[b]oxazolo[3,4-d][1,4]oxazin-1(3H)-one]
